Reference: US6436890B1, “Antimicrobial detergent composition” (Inui Corporation, priority 1999, dated 2002)
Like-named read-outs stand apart in the source and are kept apart here. One block for each molecule: values may come before it.

What was measured:
Format in all cases: cell-based
[1] = system: Bacillus subtilis ATCC 6633
Protocol: (§1) L-broth (5 ml) was inoculated with each bacteria and, after incubation at 37° C. for 18 hours, the MIC (minimum inhibitory concentration) was measured according to the Nutrient Broth liquid medium dilution method.

[2] = system: Staphylococcus aureus IFO 12732
Protocol: as §1

[3] = system: Escherichia coli K12W3110
Protocol: as §1

[4] = system: Pseudomonas aeruginosa ATCC 10145
Protocol: as §1

[5] = system: Staphylococcus aureus JCI (MRSA); assay: Antimicrobial power against MRSA, MIC by Nutrient Broth liquid medium dilution method; conditions: for MIC: Staphylococcus aureus JCI (MRSA); for Antimicrobial activity against MRSA (in words): at a low concentration
Protocol: Antimicrobial power against MRSA (Methicillin-resistant Staphylococcus aureus) of N,N′-hexamethylenebis (4-carbamoyl-1-decylpyridinium bromide) (“Dimer 38” manufactured by INUI CORPORATION) and 4,4′-(tetramethylenecarbonyldiamino)bis(1-decyl-pyridinium bromide) (“Dimer 136” manufactured by INUI CORPORATION). L-broth (5 ml) was inoculated with Staphylococcus aureus JC1 and, after incubation at 37° C. for 18 hours, the MIC (minimum inhibitory concentration) of Dimer 38 and Dimer 136 was measured according to the Nutrient Broth liquid medium dilution method.

Molecule: CC(=O)[O-].CC(=O)[O-].CCCCCCCCCC[n+]1ccc(C(=O)NCCCCCCNC(=O)c2cc[n+](CCCCCCCCCC)cc2)cc1 [Dimer 38A, N,N′-hexamethylenebis(4-carbamoyl-1-decylpyridinium acetate)]
MIC ([1]; procedure 1 of 7, B. subtilis ATCC 6633): 0.8 ppm
MIC ([1]; procedure 2 of 7, B. subtilis ATCC 6633): 0.2 ppm
MIC ([1]; procedure 3 of 7, B. subtilis ATCC 6633): 0.4 ppm
MIC ([1]; procedure 4 of 7, B. subtilis ATCC 6633): 0.2 ppm
MIC ([1]; procedure 5 of 7, B. subtilis ATCC 6633): 0.4 ppm
MIC ([1]; procedure 6 of 7, B. subtilis ATCC 6633): 0.4 ppm
MIC ([1]; procedure 7 of 7, B. subtilis ATCC 6633): 0.4 ppm
MIC ([2]; procedure 1 of 7, S. aureus IFO 12732): 0.1 ppm
MIC ([2]; procedure 2 of 7, S. aureus IFO 12732): 0.01 ppm
MIC ([2]; procedure 3 of 7, S. aureus IFO 12732): 0.05 ppm
MIC ([2]; procedure 4 of 7, S. aureus IFO 12732): 0.01 ppm
MIC ([2]; procedure 5 of 7, S. aureus IFO 12732): 0.1 ppm
MIC ([2]; procedure 6 of 7, S. aureus IFO 12732): 0.1 ppm
MIC ([2]; procedure 7 of 7, S. aureus IFO 12732): 0.05 ppm
MIC ([3]; procedure 1 of 7, E. coli K12W3110): 1.6 ppm
MIC ([3]; procedure 2 of 7, E. coli K12W3110): 0.8 ppm
MIC ([3]; procedure 3 of 7, E. coli K12W3110): 0.8 ppm
MIC ([3]; procedure 4 of 7, E. coli K12W3110): 0.8 ppm
MIC ([3]; procedure 5 of 7, E. coli K12W3110): 1.6 ppm
MIC ([3]; procedure 6 of 7, E. coli K12W3110): 1.6 ppm
MIC ([3]; procedure 7 of 7, E. coli K12W3110): 1.6 ppm
MIC ([4]; procedure 1 of 7, P. aeruginosa ATCC 10145): 3.1 ppm
MIC ([4]; procedure 2 of 7, P. aeruginosa ATCC 10145): 3.1 ppm
MIC ([4]; procedure 3 of 7, P. aeruginosa ATCC 10145): 6.3 ppm
MIC ([4]; procedure 4 of 7, P. aeruginosa ATCC 10145): 6.3 ppm
MIC ([4]; procedure 5 of 7, P. aeruginosa ATCC 10145): 6.3 ppm
MIC ([4]; procedure 6 of 7, P. aeruginosa ATCC 10145): 6.3 ppm
MIC ([4]; procedure 7 of 7, P. aeruginosa ATCC 10145): 3.1 ppm

Molecule: CCCCCCCCCC[n+]1ccc(C(=O)NCCCCCCNC(=O)c2cc[n+](CCCCCCCCCC)cc2)cc1.[Br-].[Br-] [Dimer 38, N,N′-Hexamethylenebis(4-carbamoyl-1-decylpyridinium bromide)]
MIC [5]: 0.2 ppm
Antimicrobial activity against MRSA (in words) [5]: demonstrate an antimicrobial activity against MRSA

MIC [5]: 0.6 ppm
Molecule: 4,4′-(tetramethylenedicarbonyldiamino)bis(1-decylpyridinium bromide) [Dimer 136]
Antimicrobial activity against MRSA (in words) [5]: demonstrate an antimicrobial activity against MRSA
